The test concerns the target PCP receptors. Kind of test: Tritiated TCP binding, designated RBS1. Here is the method: Tritiated TCP binding, designated RBS1, was carried out essentially as described in J Pharmacol Exp Ther, 238, 739-748 (1986).

SMILES strings stand for the structures.

Broadly, the IC50 is the concentration needed to halve the response being measured. Low readings indicate inhibition by little substance, high ones a need for much substance.

In turn, `c1csc(C2(N3CCCCC3)CCCCC2)c1` [TCP, 1-[1-(2-thienyl)cyclohexyl]piperidine] returned an IC50 of 9 nM.

The values above are taken from patent US4960815A, “Isotopically-labeled polycyclic amine derivatives” (Warner-Lambert Company, priority 1990, dated 1990).
